The results in this text go back to PMC8741243 (Journal of Enzyme Inhibition and Medicinal Chemistry, 2022).

Holding throughout (assay): stopped-flow CO2 hydration
Type in all cases: biochemical

Assay [1] concerns the target T1, VchCAα (Vibrio cholerae, UniProt Q9KMP6).
T1 construct: gene VC_A0274
Conditions: read-out: Ki (μM)^a / VchCAα; […] h preincubation at […] °C; […] HEPES pH […] NaClO4; prodrug, lactone hydrolysed by CA esterase activity.

Assay [2] concerns the target T2, NgCAα (Neisseria gonorrhoeae, UniProt Q50940).
T2 construct: gene cah; recombinant, obtained in-house as described earlier
T2 sequence (Q50940 27-252): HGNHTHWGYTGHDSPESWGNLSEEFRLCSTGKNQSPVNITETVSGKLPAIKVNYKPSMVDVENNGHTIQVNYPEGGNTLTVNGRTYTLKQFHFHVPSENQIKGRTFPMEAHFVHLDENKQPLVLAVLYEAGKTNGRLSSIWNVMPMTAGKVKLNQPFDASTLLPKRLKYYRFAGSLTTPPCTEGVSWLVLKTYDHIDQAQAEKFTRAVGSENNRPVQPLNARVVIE

Assay [3] deals with T3, hCA II (Homo sapiens, UniProt P00918).
T3 construct: gene CA2; recombinant, obtained in-house as described earlier

Assay [4] deals with T4, hCA I (Homo sapiens, UniProt P00915).
T4 construct: gene CA1; recombinant, obtained in-house as described earlier
T4 sequence (P00915 2-261): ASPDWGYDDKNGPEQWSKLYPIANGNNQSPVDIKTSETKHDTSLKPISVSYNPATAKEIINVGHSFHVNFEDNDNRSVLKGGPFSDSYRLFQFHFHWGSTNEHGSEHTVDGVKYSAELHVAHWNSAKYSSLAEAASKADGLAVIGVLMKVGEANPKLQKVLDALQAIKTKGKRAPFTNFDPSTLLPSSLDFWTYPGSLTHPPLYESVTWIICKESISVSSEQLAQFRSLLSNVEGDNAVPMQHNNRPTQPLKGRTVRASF

The structures appear in SMILES notation. Read-outs that look alike come from different tables or passages of the source.

T1 sequence (Q9KMP6 21-239 limits assumed): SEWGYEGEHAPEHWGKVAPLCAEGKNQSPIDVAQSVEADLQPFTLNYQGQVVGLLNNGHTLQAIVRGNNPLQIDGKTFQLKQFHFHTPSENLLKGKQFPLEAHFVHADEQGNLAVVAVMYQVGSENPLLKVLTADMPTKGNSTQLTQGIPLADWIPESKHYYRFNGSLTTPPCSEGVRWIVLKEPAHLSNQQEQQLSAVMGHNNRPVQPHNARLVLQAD

As to `O=c1ccc2ccccc2o1` [compound 1, simple unsubstituted coumarin 1], the Ki amounted to 94.7 µM in assay [1] and 81.6 µM in assay [2] (read-out: Ki (μM)^a / NgCAα).

Regarding `Nc1ccc2c(C(F)(F)F)cc(=O)oc2c1` [compound 7, 7], the Ki in assay [3] (read-out: Ki (μM)^a / hCA II) was found to be 733 µM; in assay [1], 95 µM; in assay [4] (read-out: Ki (μM)^a / hCA I), 940 µM; in assay [2] (read-out: Ki (μM)^a / NgCAα), 97.1 µM.

Turning to `Cc1cc2ccc(O)cc2oc1=O` [compound 10, 10], the Ki in assay [3] (read-out: Ki (μM)^a / hCA II) was 297 µM; in assay [1], 66.8 µM; in assay [4] (read-out: Ki (μM)^a / hCA I) it was 137 µM; in assay [2] (read-out: Ki (μM)^a / NgCAα), 68 µM.

Consider `CCOC(=O)Cc1cc(=O)oc2cc(O)ccc12` [compound 11, 11], for which the Ki in assay [3] (read-out: Ki (μM)^a / hCA II) came out at 876 µM; in assay [1] it was 439 µM; in assay [4] (read-out: Ki (μM)^a / hCA I), 749 µM; in assay [2] (read-out: Ki (μM)^a / NgCAα), 469 µM.

For the compound `O=c1oc2ccccc2cc1O` [compound 5, 5], the Ki in assay [3] (read-out: Ki (μM)^a / hCA II) came to 625 µM; in assay [1], 290 µM; in assay [4] (read-out: Ki (μM)^a / hCA I) it was 490 µM; in assay [2] (read-out: Ki (μM)^a / NgCAα), 110 µM.

For the compound `O=c1cc(O)c2ccc(O)cc2o1` [compound 12, 12], the Ki in assay [3] (read-out: Ki (μM)^a / hCA II) was determined as 758 µM; in assay [1], 66 µM; in assay [4] (read-out: Ki (μM)^a / hCA I) it was 182 µM; in assay [2] (read-out: Ki (μM)^a / NgCAα) it was 77.6 µM.

Consider `CC(=O)c1cc2ccc(O)cc2oc1=O` [compound 14, 14], for which the Ki in assay [3] (read-out: Ki (μM)^a / hCA II) amounted to 786 µM; in assay [1], 303 µM; in assay [4] (read-out: Ki (μM)^a / hCA I), 470 µM; in assay [2] (read-out: Ki (μM)^a / NgCAα), 395 µM.

Turning to `O=c1ccc2cc(O)ccc2o1` [compound 2, 2], the Ki was 683 µM in assay [3] (read-out: Ki (μM)^a / hCA II), 77.5 µM in assay [1], 192 µM in assay [4] (read-out: Ki (μM)^a / hCA I) and 92.4 µM in assay [2] (read-out: Ki (μM)^a / NgCAα).

Turning to `CCN(CC)c1ccc2c(C)cc(=O)oc2c1` [compound 8, 4-methyl-7-diethylamino-coumarin], the Ki stood at 559 µM in assay [3] (read-out: Ki (μM)^a / hCA II), 53.9 µM in assay [1], 517 µM in assay [4] (read-out: Ki (μM)^a / hCA I) and 28.6 µM in assay [2] (read-out: Ki (μM)^a / NgCAα).

Regarding `CC(=O)c1c(O)ccc2ccc(=O)oc12` [compound 9, 7-hydroxy-8-acetyl-coumarin], the Ki was 646 µM in assay [3] (read-out: Ki (μM)^a / hCA II), 39.8 µM in assay [1], 949 µM in assay [4] (read-out: Ki (μM)^a / hCA I) and 42.5 µM in assay [2] (read-out: Ki (μM)^a / NgCAα).

For `O=c1cc(O)c2ccccc2o1` [compound 4, 4], the Ki was found to be 513 µM in assay [3], 92.2 µM in assay [1], 394 µM in assay [4] and 94.7 µM in assay [2].

For the compound `CCOC(=O)c1cc2ccc(O)cc2oc1=O` [compound 13, 13], the Ki is 961 µM in assay [3] (read-out: Ki (μM)^a / hCA II), 432 µM in assay [1], 900 µM in assay [4] (read-out: Ki (μM)^a / hCA I) and 395 µM in assay [2] (read-out: Ki (μM)^a / NgCAα).

For `O=c1ccc2ccc(O)cc2o1` [compound 3, 3], the Ki in assay [1] came to 68.5 µM; in assay [2] (read-out: Ki (μM)^a / NgCAα) it was 77.1 µM.
